This is an account of results in PMC9698201, “Factors Affecting Cellular Uptake of Anthocyanins: The Role of pH, Glucose and Anthocyanin Structure” (Nutrients, 2022).

Series [1] concerns Caco-2 cells. As to the kind of experiment: Uptake experiment, anthocyanins taken up by cells quantified by HPLC. The series is classed as in vitro ADME, human. Conditions: for uptake reduction in the presence of glucose: 20 µM red grape anthocyanin extract, 1 mM glucose vs control without glucose; for increase in uptake with decreasing pH from 7 to 6.5: 10 µM strawberry anthocyanins; for Normalised Uptake (%): extrapolated to initial amount 10 µg/10 mL, intercept set at zero; for Uptake (%): 1 h, % of initial concentration. How it is done:
Caco-2 cells were seeded at a density of 5 × 10^5 cells in a Petri dish of 10 cm diameter with a volume of 10 mL, containing DMEM supplemented with 10% FBS, 1% NEAA and 1% penicillin and streptomycin. […] Caco-2 cells were used between passages 65–76. The medium was changed every 2–3 days. On day 14, the cells were ready for the uptake experiment. Prior to the study, the medium were removed, and the cells were rinsed with PBS.
The effect of anthocyanin structure was examined using anthocyanin extract from strawberry at 10 and 20 µM while the effect of glucose was performed at 20 µM red grape anthocyanin extract in the presence of 1 mM glucose. Additionally, 10 µM strawberry anthocyanins at pH 6.5 and 7 was used to examine the effect of pH on anthocyanin uptake.
Briefly anthocyanin stock solution was diluted to a final concentration of 10 or 20 µM in DPBS. The anthocyanins (10 mL) were immediately added to the cells, and subsequently incubated at 37 °C for 1h. Following the incubation, DPBS containing anthocyanins was removed and the cells were washed with PBS three times. The anthocyanins taken up by the cells were extracted with 6% formic acid and scraped off for collection. The extract along with the scraped cells were then sonicated, followed by centrifugation at 4 °C, 1700× g for 10 min. The supernatant was filtered and dried under nitrogen. The dry anthocyanins were redissolved in 200 µL of aqueous formic acid containing 10% acidified methanol, and then filtered into the insert prior to HPLC analysis.
HPLC was used to identify and quantify anthocyanins present in juices and cellular extract following the uptake experiment. Anthocyanin standards and their standard curves were used to identify and quantify different anthocyanin structure present in juices and cellular extracts by determining their area under curve. The analysis was performed using an Agilent 1200 series HPLC with quaternary pump and diode array UV-visible detector. Sample (50 µL) was injected onto a reverse phase column of Nova-pak@C18 4 µm, with dimensions of 4.6 × 250 mm (Waters) equipped with a guard column. The mobile phases were 1% aqueous formic acid as solvent A and acetonitrile as solvent B. The flow rate was 1 mL/min with a column temperature of 35 °C. […] Solvent B was maintained at 100% for 5 min, and returned to 100% solvent A and 0% solvent B at 60 min. Wavelengths of 280 and 520 nm were chosen to detect the anthocyanins.

On the set-up of series [2]: method as in PMID 18211024. Conditions: strawberries containing 222 µmol pelargonidin-3-O-glucoside ingested; cited from earlier work.
Series [3] is described as follows: Anthocyanin stability during 1 h incubation at pH 7 and 6.5. Format: physicochemical. The protocol:
To assess degradation due to the pH, strawberry juice extract was incubated under the same conditions in the absence of the cells (Figure 3II). […] Anthocyanins can form additional compounds important for copigmentation with phenolic acids and can form pyranoanthocyanins.
The increased uptake with decreasing pH may be linked to the anthocyanins stability and indicate the involvement of pH dependent transport mechanisms involving a proton co-transporter.

The nature of series [4]: Extrapolation of Caco-2 uptake to jejunum uptake and blood/plasma concentration. Conditions: absorption of 0.88 mg, assuming 5 litres of blood.
Setting [5] is: strawberry anthocyanins at 10 µM, initial amount Cn 1.91, Pg 45.69, Pg-rham 14.50 µg/10 mL.
[6] abbreviates: strawberry anthocyanins at 20 µM, initial amount Cn 3.89, Pg 95.23, Pg-rham 29.59 µg/10 mL.

In the case of `COc1cc(-c2[o+]c3cc(O)cc(O)c3cc2O[C@@H]2O[C@H](CO)[C@@H](O)[C@H](O)[C@H]2O)cc(OC)c1O` [malvidin-3-glucoside], the “uptake reduction in the presence of glucose” value (“uptake reduction” for short) in series [1] is recorded as 69–72%.

On to `OC[C@H]1O[C@@H](Oc2cc3c(O)cc(O)cc3[o+]c2-c2cc(O)c(O)c(O)c2)[C@H](O)[C@@H](O)[C@@H]1O` [delphinidin-3-glucoside], for which the “uptake reduction” value in series [1] was found to be 42%.

Consider `COc1cc(-c2[o+]c3cc(O)cc(O)c3cc2O[C@@H]2O[C@H](CO)[C@@H](O)[C@H](O)[C@H]2O)cc(O)c1O` [petunidin-3-glucoside], for which, in series [1], the “uptake reduction” value is on record as 69–72%.

As to pelargonidin-O-glucuronide, in series [2], the peak plasma concentration is 274 ± 24 nM and the “time of peak plasma concentration” value was 1.1 ± 0.4 h.

Consider `OC[C@H]1O[C@@H](Oc2cc3c(O)cc(O)cc3[o+]c2-c2ccc(O)cc2)[C@H](O)[C@@H](O)[C@@H]1O` [pelargonidin-3-glucoside], for which the stability in series [3] (pH 6.5, 1 h incubation) is recorded as 93.7%. Moreover, the stability in series [3] (pH 7, 1 h incubation) was determined as 67.7%. In addition, in series [1], the “increase in uptake with decreasing pH from 7 to 6.5” value is recorded as 118% and the “Normalised Uptake (%)” value is 0.007%. In series [1] (setting [5]), the “Uptake (%)” value is on record as 2.88 × 10^−2%. The “Uptake (%)” value in series [1] (setting [6]) is recorded as 6.95 × 10^−2%. For the same compound, in series [4], the blood concentration is given as 400 nM and the plasma concentration is given as 727 nM.

For the compound pelargonidin-3-rhamnosylglucoside, the stability in series [3] (pH 6.5, 1 h incubation) came to 91.8%; in series [3] (pH 7, 1 h incubation) it was 72.3%. Also, the “increase in uptake with decreasing pH from 7 to 6.5” value in series [1] was 88%. For the same compound, the “Normalised Uptake (%)” value in series [1] is listed as 0.02%. Also, the “Uptake (%)” value is on record as 2.66 × 10^−2% in series [1] (setting [5]) and 5.93 × 10^−2% in series [1] (setting [6]).

Turning to `OC[C@H]1O[C@@H](Oc2cc3c(O)cc(O)cc3[o+]c2-c2ccc(O)c(O)c2)[C@H](O)[C@@H](O)[C@@H]1O` [cyanidin-3-glucoside], the stability in series [3] (pH 6.5, 1 h incubation) is given as 88.7%; in series [3] (pH 7, 1 h incubation) it was 63.1%. Further, the “increase in uptake with decreasing pH from 7 to 6.5” value in series [1] is listed as 139%. Moreover, the “uptake reduction” value in series [1] was determined as 67%. The “Normalised Uptake (%)” value in series [1] was 0.159%. Also, the “Uptake (%)” value is 2.32 × 10^−2% in series [1] (setting [5]) and 6.54 × 10^−2% in series [1] (strawberry anthocyanins at 20 µM, initial amount Cn 3.89, Pg 95.23, Pg-rham 29.59 µg/10 mL, listed as Cn).
